Measured values as given in US10722515B2, “Dual CLK/CDK1 inhibitors for cancer treatment” (SRI INTERNATIONAL, priority 2016, dated 2020).
Where two headings read alike, the source gives them in different places.

Legend:
CLK1(h) = molecular target: T1, CLK1(h) (Homo sapiens, UniProt P49759); assay: radiometric protein kinase assay, CLK1; assay type: biochemical
T1 construct: purchased Eurofins, Dundee, Scotland
Experimental: (§1) Enzymatic biochemical activities were evaluated in radiometric protein kinase assays (Eurofins, Dundee, Scotland). Kinases are incubated with buffer, substrate and [γ-^33P]-ATP (specific activity approx. 500 cpm/pmol, concentration as required). The reaction is initiated by the addition of the MgATP mix. After incubation for 40 minutes at room temperature, the reaction is stopped by the addition of 3% phosphoric acid solution. 10 μL of the reaction is then spotted onto a P30 filtermat and washed three times for 5 minutes in 75 mM phosphoric acid and once in methanol prior to drying and scintillation counting.
(§2) All compounds are prepared to 50× final assay concentration in 100% DMSO. Positive control wells contain all components of the reaction with 2% DMSO. Blank wells contain all components of the reaction, with a reference inhibitor replacing the compound of interest. Each kinase is assigned a standard assay concentration of ATP within 20 μM of its apparent KM. Compounds were screened at 1 μM in duplicate or tested at 10 concentrations at half log dilution starting from 10 μM in singlicate. Dose response curves were fitted with four parameter logistic curve to obtain IC50 values. The average coefficient of variation (CV) of the conducted assay is 4.4%.

CLK2(h) = molecular target: T2, CLK2(h) (Homo sapiens, UniProt P49760); assay: radiometric protein kinase assay, CLK2; assay type: biochemical; conditions: enzyme inhibition, ATP 10 μM
T2 construct: purchased Eurofins, Dundee, Scotland
T2 sequence (P49760 whole entry): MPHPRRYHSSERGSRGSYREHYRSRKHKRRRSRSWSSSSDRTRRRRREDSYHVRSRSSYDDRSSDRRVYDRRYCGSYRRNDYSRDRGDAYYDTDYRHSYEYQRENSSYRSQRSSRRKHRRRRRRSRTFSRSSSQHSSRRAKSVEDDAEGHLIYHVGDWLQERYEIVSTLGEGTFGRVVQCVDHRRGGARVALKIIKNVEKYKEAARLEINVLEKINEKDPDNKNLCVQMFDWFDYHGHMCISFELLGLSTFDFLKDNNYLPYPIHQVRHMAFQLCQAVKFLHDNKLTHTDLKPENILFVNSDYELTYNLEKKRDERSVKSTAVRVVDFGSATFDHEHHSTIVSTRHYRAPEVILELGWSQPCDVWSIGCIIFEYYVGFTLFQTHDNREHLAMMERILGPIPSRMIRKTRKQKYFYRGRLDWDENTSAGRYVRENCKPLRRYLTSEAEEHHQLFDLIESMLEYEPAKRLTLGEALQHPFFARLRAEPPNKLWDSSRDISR
Experimental: as §1, §2

CLK3(h) = molecular target: T3, CLK3(h) (Homo sapiens, UniProt P49761); assay: radiometric protein kinase assay, CLK3; assay type: biochemical
T3 construct: purchased Eurofins, Dundee, Scotland
T3 sequence (P49761 whole entry): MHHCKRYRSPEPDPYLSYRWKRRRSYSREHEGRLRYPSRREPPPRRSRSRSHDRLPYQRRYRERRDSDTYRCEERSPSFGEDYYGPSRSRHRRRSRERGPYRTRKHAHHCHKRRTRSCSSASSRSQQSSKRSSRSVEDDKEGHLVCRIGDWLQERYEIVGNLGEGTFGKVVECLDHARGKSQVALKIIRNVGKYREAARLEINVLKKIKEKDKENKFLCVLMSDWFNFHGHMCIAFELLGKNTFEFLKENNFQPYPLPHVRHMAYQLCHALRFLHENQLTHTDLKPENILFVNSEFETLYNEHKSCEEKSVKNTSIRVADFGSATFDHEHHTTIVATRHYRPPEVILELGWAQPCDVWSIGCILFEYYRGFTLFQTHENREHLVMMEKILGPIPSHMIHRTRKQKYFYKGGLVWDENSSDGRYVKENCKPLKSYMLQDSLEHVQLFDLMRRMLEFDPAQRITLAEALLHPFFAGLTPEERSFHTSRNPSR
Experimental: as §1, §2

CLK4(h) = molecular target: T4, CLK4(h) (Homo sapiens, UniProt Q9HAZ1); assay: radiometric protein kinase assay, CLK4; assay type: biochemical; conditions: enzyme inhibition, ATP 10 μM
T4 construct: purchased Eurofins, Dundee, Scotland
T4 sequence (Q9HAZ1 whole entry): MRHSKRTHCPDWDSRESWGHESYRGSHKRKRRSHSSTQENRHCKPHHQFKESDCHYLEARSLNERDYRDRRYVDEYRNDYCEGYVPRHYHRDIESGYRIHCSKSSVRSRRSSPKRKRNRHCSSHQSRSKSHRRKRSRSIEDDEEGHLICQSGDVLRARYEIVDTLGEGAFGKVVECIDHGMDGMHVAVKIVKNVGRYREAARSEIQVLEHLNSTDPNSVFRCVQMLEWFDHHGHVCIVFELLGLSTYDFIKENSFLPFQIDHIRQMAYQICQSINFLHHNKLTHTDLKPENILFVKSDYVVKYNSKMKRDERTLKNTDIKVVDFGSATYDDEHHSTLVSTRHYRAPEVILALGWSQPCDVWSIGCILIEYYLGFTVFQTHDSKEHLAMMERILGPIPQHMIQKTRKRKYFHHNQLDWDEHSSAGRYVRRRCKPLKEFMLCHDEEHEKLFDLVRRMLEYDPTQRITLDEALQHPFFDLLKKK
Experimental: as §1, §2

CDK1/cyclinB(h) = molecular target: T5, CDK1/cyclinB(h) (Homo sapiens, UniProt P06493); assay: radiometric protein kinase assay, CDK1; assay type: biochemical; conditions: enzyme inhibition, ATP 45 μM
T5 construct: purchased Eurofins, Dundee, Scotland
T5 sequence (P06493 whole entry): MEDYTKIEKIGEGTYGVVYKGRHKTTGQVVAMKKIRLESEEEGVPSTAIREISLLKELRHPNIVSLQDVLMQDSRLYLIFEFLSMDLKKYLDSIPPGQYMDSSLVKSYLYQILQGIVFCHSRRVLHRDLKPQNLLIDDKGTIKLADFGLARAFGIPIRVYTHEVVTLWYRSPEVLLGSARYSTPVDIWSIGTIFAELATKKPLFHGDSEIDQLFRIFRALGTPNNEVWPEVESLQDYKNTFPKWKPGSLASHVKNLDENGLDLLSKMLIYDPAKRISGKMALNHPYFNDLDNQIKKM
T5 sequence (P14635 whole entry partner): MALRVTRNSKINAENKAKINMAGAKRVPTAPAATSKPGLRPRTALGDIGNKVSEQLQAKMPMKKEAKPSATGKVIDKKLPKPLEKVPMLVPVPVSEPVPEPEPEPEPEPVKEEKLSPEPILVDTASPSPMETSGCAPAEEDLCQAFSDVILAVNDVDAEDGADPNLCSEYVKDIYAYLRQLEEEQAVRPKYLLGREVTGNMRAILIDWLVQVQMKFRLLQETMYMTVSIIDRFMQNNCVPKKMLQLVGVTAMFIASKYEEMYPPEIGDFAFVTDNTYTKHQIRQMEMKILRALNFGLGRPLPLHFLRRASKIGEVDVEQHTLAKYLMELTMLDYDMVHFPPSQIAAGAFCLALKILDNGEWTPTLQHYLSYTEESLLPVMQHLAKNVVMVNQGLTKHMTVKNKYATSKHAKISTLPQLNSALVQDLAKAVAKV
Experimental: as §1, §2

CDK4/cyclinD3(h) = molecular target: T6, CDK4/cyclinD3(h) (Homo sapiens, UniProt P11802); assay: radiometric protein kinase assay, CDK4; assay type: biochemical; conditions: enzyme inhibition, ATP 20 μM
T6 construct: purchased Eurofins, Dundee, Scotland
T6 sequence (P11802 whole entry): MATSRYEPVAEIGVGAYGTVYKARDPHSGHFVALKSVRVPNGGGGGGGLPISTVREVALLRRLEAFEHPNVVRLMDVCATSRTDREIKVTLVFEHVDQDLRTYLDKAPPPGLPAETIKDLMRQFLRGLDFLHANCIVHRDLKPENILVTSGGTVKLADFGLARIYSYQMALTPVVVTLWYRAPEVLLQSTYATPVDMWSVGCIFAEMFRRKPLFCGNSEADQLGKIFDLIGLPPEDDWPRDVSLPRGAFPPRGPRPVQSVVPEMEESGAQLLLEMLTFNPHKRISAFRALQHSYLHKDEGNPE
T6 sequence (P30281 whole entry partner): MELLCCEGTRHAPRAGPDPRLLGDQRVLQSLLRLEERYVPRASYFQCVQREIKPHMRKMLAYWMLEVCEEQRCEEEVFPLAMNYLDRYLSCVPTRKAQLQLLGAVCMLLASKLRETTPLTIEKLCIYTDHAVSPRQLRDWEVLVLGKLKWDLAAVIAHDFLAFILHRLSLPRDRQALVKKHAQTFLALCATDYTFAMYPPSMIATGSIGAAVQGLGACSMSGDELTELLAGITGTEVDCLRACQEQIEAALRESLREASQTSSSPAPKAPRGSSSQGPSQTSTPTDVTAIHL
Experimental: as §1, §2

CDK6/cyclinD3(h) = molecular target: T7, CDK6/cyclinD3(h) (Homo sapiens, UniProt Q00534); assay: radiometric protein kinase assay, CDK6; assay type: biochemical; conditions: enzyme inhibition, ATP 20 μM
T7 construct: purchased Eurofins, Dundee, Scotland
T7 sequence (Q00534 whole entry): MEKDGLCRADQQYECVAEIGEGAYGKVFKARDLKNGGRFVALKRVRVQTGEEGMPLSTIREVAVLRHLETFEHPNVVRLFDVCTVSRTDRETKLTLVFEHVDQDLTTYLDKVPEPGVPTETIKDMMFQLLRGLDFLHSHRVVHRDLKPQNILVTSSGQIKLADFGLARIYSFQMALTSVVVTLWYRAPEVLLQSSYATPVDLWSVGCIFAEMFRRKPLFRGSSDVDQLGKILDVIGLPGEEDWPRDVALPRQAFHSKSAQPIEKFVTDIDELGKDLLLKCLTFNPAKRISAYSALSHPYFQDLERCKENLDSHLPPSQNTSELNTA
T7 sequence (P30281 whole entry partner): as the sequence (P30281 whole entry partner) above
Experimental: as §1, §2

[1] = tested on: MDM2 alternate splicing in Rh-18 cells; assay: Rh-18 MDM2 RT-PCR gel-based assay (orthogonal secondary assay); assay type: cell-based; conditions: 10 μM, 8 h
Experimental: These hits were then subjected to a confirmatory assay in the Rh-18 MDM2 RT-PCR gel-based assay at a concentration of 10 μM.
Referring to FIG. 6, cells were exposed to 0.5% DMSO, 0.2 μM sudemycin D6 or […] CGP-74514A for 8 h. Total RNA was extracted by RNeasy Mini Kit (Qiagen). High capacity RNA-to-cDNA kit (Life technologies) was used to convert the RNA to cDNA.
Referring to FIG. 7, cells were exposed to 0.5% DMSO (lane 1), 1 μM sudemycin D6 (lane 2), 10 μM Compound 14 (lane 3), and 10 μM Compound 15 (lane 4) for 8 h. The total RNA was extracted by RNeasy Mini Kit (Qiagen). High capacity RNA-to-cDNA kit (Life technologies) was used to convert the RNA to cDNA. […] Ubiquitin transcripts (165 bp) in the same cells were used as a control (Fan et al. (2011) ACS Chem. Biol. 6: 582-9).

[2] = tested on: SK-MEL-2/Luc-MDM2 cells (MDM2-Luc exon-skipping reporter); assay: cell-based MDM2-Luc exon-skipping reporter assay; conditions: for MDM2/Luc: luciferase activation vs DMSO control, average of three experiments

T1 sequence (P49759 whole entry): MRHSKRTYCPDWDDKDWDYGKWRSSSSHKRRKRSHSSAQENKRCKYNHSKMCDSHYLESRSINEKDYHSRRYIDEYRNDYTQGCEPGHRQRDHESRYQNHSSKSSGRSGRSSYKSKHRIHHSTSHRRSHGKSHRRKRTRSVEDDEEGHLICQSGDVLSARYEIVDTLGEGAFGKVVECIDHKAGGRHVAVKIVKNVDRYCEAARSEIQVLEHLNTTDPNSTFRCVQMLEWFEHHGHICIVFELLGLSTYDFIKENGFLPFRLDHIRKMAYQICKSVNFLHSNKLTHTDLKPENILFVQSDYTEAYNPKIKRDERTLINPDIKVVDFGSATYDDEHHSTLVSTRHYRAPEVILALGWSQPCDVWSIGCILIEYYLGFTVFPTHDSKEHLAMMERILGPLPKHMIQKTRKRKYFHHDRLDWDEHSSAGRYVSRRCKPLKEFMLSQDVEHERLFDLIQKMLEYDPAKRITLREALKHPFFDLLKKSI

| Compound | IC50 (CLK1(h)) [nM] | IC50 (CLK2(h)) [nM] | IC50 (CLK3(h)) [nM] | IC50 (CLK4(h)) [nM] | IC50 (CDK1/cyclinB(h)) [nM] | IC50 (CDK4/cyclinD3(h)) [nM] | IC50 (CDK6/cyclinD3(h)) [nM] | activity in the Rh-18 MDM2 RT-PCR gel-based confirmatory assay [1] | MDM2/Luc [2] | IC50 (CLK1(h); enzyme inhibition, radiometric, ATP 10 μM, read-out: IC50 (nM) CLK1) [nM] | IC50 (CLK3(h); enzyme inhibition, radiometric, ATP 90 μM, read-out: IC50 (nM) CLK3) [nM] | luciferase response (Luc fold) in the MDM2-Luc reporter assay ([2]; compared with less potent CLK inhibitors of the series) | MDM2-Luc activity ([2]; result in words, no concentration stated) |
| --- | --- | --- | --- | --- | --- | --- | --- | --- | --- | --- | --- | --- | --- |
| CCn1cnc2c(Nc3cccc(Cl)c3)nc(NC3CCCCC3N)nc21 (racemic) [CGP-74514A (1), Racemicm-(Cis-2-Aminocyclohexyl)-N-(3-Chlorophenyl)-9-Ethyl-9H-Purine-2,6-Diamine, reference compound] | 148 | 111 | > 1000 | 104 | 382 | 573 | > 1000 | clear activity | Active | – | – | – | – |
| CC(=O)Nc1cc(Cl)cc(Nc2nc(NC3CCCCC3N)nc3c2ncn3C(C)C)c1 (racemic) [Compound 15, Racemic N-Cis(3-((2-((2-Aminocyclohexyl)Amino)-9-Isopropyl-9H-Purin-6-Yl)Amino)-5-Chlorophenyl)Acetamide] | – | 13 | – | 64 | > 1000 | 930 | > 1000 | confirmation | Active | 19 | > 1000 | stronger luciferase response | strong MDM2-Luc activity |
| CC(C)[C@H](CO)Nc1nc(Nc2cc(N)cc(Cl)c2)c2ncn(C(C)C)c2n1 [Aminopurvalanol A, reference compound] | – | – | – | – | – | – | – | clear activity | – | – | – | – | – |
